# Data: patent US10251889B2, “Substituted pyrazolo[1,5-a]pyrimidine compounds as Trk kinase inhibitors” (Array BioPharma, Inc., priority 2009, dated 2019)
# Target: Jak2 (human Jak2 kinase domain, amino acids 808-1132) (Homo sapiens (Human), UniProt O60674)
# Experiment: Jak2 inhibition assay (Omnia kinase assay)
# Format: biochemical
# Conditions: read-out: Jak2 Enzyme (% inhibition at 1000 nM), Table 1; 1000 nM test compound
# Chain of Jak2 (human Jak2 kinase domain, amino acids 808-1132) (O60674 808-1132): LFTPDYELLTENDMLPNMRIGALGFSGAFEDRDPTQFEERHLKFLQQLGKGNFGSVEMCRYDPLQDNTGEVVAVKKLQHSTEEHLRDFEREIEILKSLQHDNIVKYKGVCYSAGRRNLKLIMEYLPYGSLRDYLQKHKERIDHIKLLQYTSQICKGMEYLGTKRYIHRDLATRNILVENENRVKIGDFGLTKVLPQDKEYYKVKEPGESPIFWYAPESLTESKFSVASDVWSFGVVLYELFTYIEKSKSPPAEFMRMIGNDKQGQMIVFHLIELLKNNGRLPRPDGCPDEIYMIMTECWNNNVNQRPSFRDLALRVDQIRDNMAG
row,SMILES,inhibition at 1 µM
1,"COc1ncc(F)cc1[C@H]1CCCN1c1ccn2ncc(C(=O)NCC(O)CO)c2n1 (stereo partly drawn) [Example 149, N-(2,3-dihydroxypropyl)-5-((R)-2-(5-fluoro-2-methoxypyridin-3-yl)pyrrolidin-1-yl)pyrazolo[1,5-a]pyrimidine-3-carboxamide]",10.2%
2,"COc1ncc(F)cc1[C@H]1CCCN1c1ccn2ncc(C(=O)NC[C@@H](O)CO)c2n1 [Example 150, N-((R)-2,3-dihydroxypropyl)-5-((R)-2-(5-fluoro-2-methoxypyridin-3-yl)pyrrolidin-1-yl)pyrazolo[1,5-a]pyrimidine-3-carboxamide]",8.9%
3,"COc1ncc(F)cc1[C@H]1CCCN1c1ccn2ncc(C(=O)NCCCCO)c2n1 [Example 151, (R)-5-(2-(5-fluoro-2-methoxypyridin-3-yl)pyrrolidin-1-yl)-N-(4-hydroxybutyl)pyrazolo[1,5-a]pyrimidine-3-carboxamide]",35.6%
4,"COc1ncc(F)cc1[C@H]1CCCN1c1ccn2ncc(C(=O)NOCCOC(C)(C)C)c2n1 [Example 152, (R)-N-(2-tert-butoxyethoxy)-5-(2-(5-fluoro-2-methoxypyridin-3-yl)pyrrolidin-1-yl)pyrazolo[1,5-a]pyrimidine-3-carboxamide]",7.6%
5,"CNC(=O)c1cnn2ccc(N3CCC[C@@H]3c3cc(F)cnc3OC)nc12 [Example 153, (R)-5-(2-(5-fluoro-2-methoxypyridin-3-yl)pyrrolidin-1-yl)-N-methylpyrazolo[1,5-a]pyrimidine-3-carboxamide]",33.8%
6,"COc1ncc(F)cc1[C@H]1CCCN1c1ccn2ncc(C(=O)N[C@H]3CC[C@H](O)C3)c2n1 [Example 154, 5-((R)-2-(5-fluoro-2-methoxypyridin-3-yl)pyrrolidin-1-yl)-N-((1S,3S)-3-hydroxycyclopentyl)pyrazolo[1,5-a]pyrimidine-3-carboxamide]",64.4%
7,"COc1ncc(F)cc1[C@H]1CCCN1c1ccn2ncc(C(=O)NCCO)c2n1 [Example 155, (R)-5-(2-(5-fluoro-2-methoxypyridin-3-yl)pyrrolidin-1-yl)-N-(2-hydroxyethyl)pyrazolo[1,5-a]pyrimidine-3-carboxamide]",33.3%
8,"COc1ncc(F)cc1[C@H]1CCCN1c1ccn2ncc(C(=O)NC[C@H](C)O)c2n1 [Example 156, 5-((R)-2-(5-fluoro-2-methoxypyridin-3-y1)pyrrolidin-1-yl)-N-((S)-2-hydroxypropyl)pyrazolo[1,5-a]pyrimidine-3-carboxamide]",16.1%
9,"COc1ncc(F)cc1[C@H]1CCCN1c1ccn2ncc(C(=O)NC[C@@H](C)O)c2n1 [Example 157, 5-((R)-2-(5-fluoro-2-methoxypyridin-3-yl)pyrrolidin-1-yl)-N-((R)-2-hydroxypropyl)pyrazolo[1,5-a]pyrimidine-3-carboxamide]",9.6%
10,"COc1ncc(F)cc1[C@H]1CCCN1c1ccn2ncc(C(=O)NCC(C)(C)O)c2n1 [Example 158, (R)-5-(2-(5-fluoro-2-methoxypyridin-3-yl)pyrrolidin-1-yl)-N-(2-hydroxy-2-methylpropyl)pyrazolo[1,5-a]pyrimidine-3-carboxamide]",14.4%
11,"COc1ncc(F)cc1[C@H]1CCCN1c1ccn2ncc(C(=O)NC3CCN(CCO)CC3)c2n1 [Example 159, (R)-5-(2-(5-fluoro-2-methoxypyridin-3-yl)pyrrolidin-1-yl)-N-(1-(2-hydroxyethyl)piperidin-4-yl)pyrazolo[1,5-a]pyrimidine-3-carboxamide]",28.9%
12,"COc1ncc(F)cc1[C@H]1CCCN1c1ccn2ncc(C(=O)NC(CO)CO)c2n1 [Example 160, (R)-N-(1,3-dihydroxypropan-2-yl)-5-(2-(5-fluoro-2-methoxypyridin-3-yl)pyrrolidin-1-y1)pyrazolo[1,5-a]pyrimidine-3-carboxamide]",8.5%
13,"COc1ncc(F)cc1[C@H]1CCCN1c1ccn2ncc(C(=O)Nc3ccc(=O)[nH]c3)c2n1 [Example 161, (R)-5-(2-(5-fluoro-2-methoxypyridin-3-yl)pyrrolidin-1-yl)-N-(6-oxo-1,6-dihydropyridin-3-yl)pyrazolo[1,5-a]pyrimidine-3-carboxamide]",27.4%
14,"COc1ncc(F)cc1[C@H]1CCCN1c1ccn2ncc(C(=O)NC3CCN(S(C)(=O)=O)CC3)c2n1 [Example 162, (R)-5-(2-(5-fluoro-2-methoxypyridin-3-yl)pyrrolidin-1-yl)-N-(1-(methylsulfonyl)piperidin-4-yl)pyrazolo[1,5-a]pyrimidine-3-carboxamide]",66.2%
15,"O=C(NCCO)c1cnn2ccc(N3CCCC3c3cc(F)ccc3F)nc12 (centres unmarked) [Example 165, 5-(2-(2,5-difluorophenyl)pyrrolidin-1-yl)-N-(2-hydroxyethyl)pyrazolo[1,5-a]pyrimidine-3-carboxamide]",26.8%
16,"C[C@H](O)CNC(=O)c1cnn2ccc(N3CCC[C@@H]3c3cc(F)ccc3F)nc12 [Example 166, 5-((R)-2-(2,5-difluorophenyl)pyrrolidin-1-yl)-N-(2-hydroxypropyl)pyrazolo[1,5-a]pyrimidine-3-carboxamide]",13.8%
17,"O=C(N[C@H]1CC[C@H](O)C1)c1cnn2ccc(N3CCC[C@@H]3c3cc(F)ccc3F)nc12 [Example 169, 5-((R)-2-(2,5-difluorophenyl)pyrrolidin-1-yl)-N-((1S,3S)-3-hydroxycyclopentyl)pyrazolo[1,5-a]pyrimidine-3-carboxamide]",51.9%
18,"O=C(NCCN1CCC(O)CC1)c1cnn2ccc(N3CCC[C@@H]3c3cc(F)ccc3F)nc12 [Example 170, 5-((R)-2-(2,5-difluorophenyl)pyrrolidin-1-yl)-N-(2-(4-hydroxypiperidin-1-yl)ethyl)pyrazolo[1,5-a]pyrimidine-3-carboxamide]",0.7%
19,"CN1CCN(CCNC(=O)c2cnn3ccc(N4CCC[C@@H]4c4cc(F)ccc4F)nc23)CC1 [Example 171, 5-((R)-2-(2,5-difluorophenyl)pyrrolidin-1-yl)-N-(2-(4-methylpiperazin-1-yl)ethyl)pyrazolo[1,5-a]pyrimidine-3-carboxamide]",7.8%
20,"COCCNC(=O)c1cnn2ccc(N3CCC[C@@H]3c3cc(F)ccc3F)nc12 [Example 172, 5-((R)-2-(2,5-difluorophenyl)pyrrolidin-1-yl)-N-(2-methoxyethyl)pyrazolo[1,5-a]pyrimidine-3-carboxamide]",11%
21,"C[C@@H](O)[C@H](CO)NC(=O)c1cnn2ccc(N3CCC[C@@H]3c3cc(F)ccc3F)nc12 [Example 174, 5-((R)-2-(2,5-difluorophenyl)pyrrolidin-1-yl)-N-((2S,3R)-1,3-dihydroxybutan-2-yl)pyrazolo[1,5-a]pyrimidine-3-carboxamide]",6.4%
22,"C[C@H](O)[C@H](CO)NC(=O)c1cnn2ccc(N3CCC[C@@H]3c3cc(F)ccc3F)nc12 [Example 175, 5-((R)-2-(2,5-difluorophenyl)pyrrolidin-1-yl)-N-((2S,3S)-1,3-dihydroxybutan-2-yl)pyrazolo[1,5-a]pyrimidine-3-carboxamide]",3.8%
23,"C[C@H](O)[C@@H](CO)NC(=O)c1cnn2ccc(N3CCC[C@@H]3c3cc(F)ccc3F)nc12 [Example 176, 5-((R)-2-(2,5-difluorophenyl)pyrrolidin-1-yl)-N-((2R,3S)-1,3-dihydroxybutan-2-yl)pyrazolo[1,5-a]pyrimidine-3-carboxamide]",6.3%
